Source: patent publication US6737383B1, “Herbicidal oxadiazolidines” (priority 1999, dated 2004)

Legend:
wheat = test: Test B pre/postemergence wheat; assay type: in vivo, Triticum aestivum
Method in brief: (§1)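 Response is a visual 0-to-10 score relative to untreated plants, where 0 means no effect and 10 means complete control, taken twelve to sixteen days after application. Treatments went onto soil at planting and onto foliage of 1- to 4-leaf plants, using a surfactant-containing non-phytotoxic solvent.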

purple nutsedge = test: Test B pre/postemergence purple nutsedge; assay type: in vivo, Cyperus rotundus
Method in brief: as §1

morningglory = test: Test B pre/postemergence morningglory; assay type: in vivo, Ipomoea hederacea
Method in brief: as §1

smallflower flatsedge = test: Test B flood test smallflower flatsedge; assay type: in vivo, Cyperus difformis
Method in brief: (§2)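 Plants were grown to the 2-leaf stage before treatment with test chemical, then held in a greenhouse for twelve to sixteen days. Injury was visually rated against untreated controls on a 0–10 scale, where 0 is no effect and 10 is complete control.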

soybean = test: Test B pre/postemergence soybean; assay type: in vivo, Glycine max
Method in brief: as §1

cocklebur = test: Test B pre/postemergence cocklebur; assay type: in vivo, Xanthium strumarium
Method in brief: as §1

rice = test: Test B flood test rice; assay type: in vivo, Oryza sativa
Method in brief: as §2

rape = test: Test B pre/postemergence rape; assay type: in vivo, Brassica napus
Method in brief: as §1

giant foxtail = test: Test B pre/postemergence giant foxtail; assay type: in vivo, Setaria faberii
Method in brief: as §1

pigweed = test: Test B pre/postemergence pigweed; assay type: in vivo, Amaranthus retroflexus
Method in brief: as §1

crabgrass = test: Test B pre/postemergence crabgrass; assay type: in vivo, Digitaria sanguinalis
Method in brief: as §1

corn = test: Test B pre/postemergence corn; assay type: in vivo, Zea mays
Method in brief: as §1

duck salad = test: Test B flood test duck salad; assay type: in vivo, Heteranthera limosa
Method in brief: as §2

velvetleaf = test: Test B pre/postemergence velvetleaf; assay type: in vivo, Abutilon theophrasti
Method in brief: as §1

sugar beet = test: Test B pre/postemergence sugar beet; assay type: in vivo, Beta vulgaris
Method in brief: as §1

blackgrass = test: Test B pre/postemergence blackgrass; assay type: in vivo, Alopecurus myosuroides
Method in brief: as §1

[1] = Preemergence, Rate 62 g/ha, scale of 0 to 10 where 0 is no effect and 10 is complete control
[2] = Preemergence, Rate 125 g/ha, 0 is no effect, 10 is complete control
[3] = Preemergence, Rate 250 g/ha, scale 0 to 10, 0 is no effect, 10 is complete control
[4] = Preemergence, Rate 500 g/ha, scale 0 to 10 (0 no effect, 10 complete control)
[5] = Rate 250 g/ha, Postemergence, scale 0 to 10, 0 is no effect, 10 is complete control
[6] = Rate 500 g/ha, Postemergence, scale 0 to 10
[7] = Postemergence, Rate 125 g/ha, scale of 0 to 10 where 0 is no effect and 10 is complete control
[8] = Rate 62 g/ha, Postemergence, scale of 0 to 10 where 0 is no effect and 10 is complete control
[9] = Rate 62 g/ha, headed Pre-emergence (flood test species), scale 0 to 10 (0 no effect, 10 complete control)
[10] = Rate 125 g/ha, Pre-emergence, flood test species, scale 0 to 10 where 0 is no effect and 10 is complete control
[11] = Rate 250 g/ha, Pre-emergence, flood-test species, scale 0 to 10, 0 is no effect, 10 is complete control
[12] = Rate 500 g/ha, headed Pre-emergence (flood test species), scale 0 to 10 (0 no effect, 10 complete control)

Structure (SMILES): CC(C)N(Cc1ccccc1)C(=O)n1oc(=O)n(C(C)C)c1=O [Compound 165]
- Wheat plant response rating (wheat; [1]): 0
- Wheat plant response rating (0 to 10 scale) (wheat; [2]): 0
- Wheat plant response rating (wheat; [3]): 0
- Wheat plant response rating (wheat; [4]): 2
- Plant response rating, Wheat (wheat; [5]): 2
- Wheat plant response rating (wheat; [6]): 3
- Nutsedge plant response rating (purple nutsedge; [7]): 0
- Nutsedge plant response rating (purple nutsedge; [1]): 0
- Nutsedge plant response rating (0 to 10 scale) (purple nutsedge; [2]): 0
- Nutsedge plant response rating (purple nutsedge; [3]): 0
- Nutsedge plant response rating (purple nutsedge; [4]): 0
- Nutsedge plant response rating (purple nutsedge; [8]): 0
- Plant response rating, Nutsedge (purple nutsedge; [5]): 0
- Nutsedge plant response rating (purple nutsedge; [6]): 0
- Morningglory plant response rating (morningglory; [7]): 3
- Morningglory plant response rating (morningglory; [1]): 0
- Morningglory plant response rating (0 to 10 scale) (morningglory; [2]): 0
- Morningglory plant response rating (morningglory; [3]): 0
- Morningglory plant response rating (morningglory; [4]): 3
- Morningglory plant response rating (morningglory; [8]): 3
- Plant response rating, Morningglory (morningglory; [5]): 3
- Morningglory plant response rating (morningglory; [6]): 4
- S. Flatsedge plant response rating (smallflower flatsedge; [9]): 0
- S. Flatsedge plant response rating (smallflower flatsedge; [10]): 0
- S. Flatsedge plant response rating (smallflower flatsedge; [11]): 0
- S. Flatsedge plant response rating (smallflower flatsedge; Rate 500 g/ha, Pre-emergence, flood test species, scale 0 to 10 (0 no effect, 10 complete control)): 0
- Soybean plant response rating (soybean; [7]): 4
- Soybean plant response rating (soybean; [1]): 0
- Soybean plant response rating (0 to 10 scale) (soybean; [2]): 0
- Soybean plant response rating (soybean; [3]): 0
- Soybean plant response rating (soybean; [4]): 0
- Soybean plant response rating (soybean; [8]): 2
- Plant response rating, Soybean (soybean; [5]): 6
- Soybean plant response rating (soybean; [6]): 6
- Cocklebur plant response rating (cocklebur; [7]): 0
- Cocklebur plant response rating (cocklebur; [1]): 0
- Cocklebur plant response rating (0 to 10 scale) (cocklebur; [2]): 0
- Cocklebur plant response rating (cocklebur; [3]): 0
- Cocklebur plant response rating (cocklebur; [4]): 0
- Cocklebur plant response rating (cocklebur; [8]): 0
- Plant response rating, Cocklebur (cocklebur; [5]): 0
- Cocklebur plant response rating (cocklebur; [6]): 0
- Rice plant response rating (rice; [9]): 0
- Rice plant response rating (rice; [10]): 0
- Rice plant response rating (rice; [11]): 0
- Plant response rating, Rice (rice; [12]): 0
- Rape plant response rating (rape; [7]): 0
- Rape plant response rating (rape; [1]): 0
- Rape plant response rating (0 to 10 scale) (rape; [2]): 0
- Rape plant response rating (rape; [3]): 4
- Rape plant response rating (rape; [4]): 10
- Rape plant response rating (rape; [8]): 0
- Plant response rating, Rape (rape; [5]): 0
- Rape plant response rating (rape; [6]): 2
- Giant foxtail plant response rating (giant foxtail; [7]): 1
- Giant foxtail plant response rating (giant foxtail; [1]): 6
- Giant foxtail plant response rating (0 to 10 scale) (giant foxtail; [2]): 7
- Giant foxtail plant response rating (giant foxtail; [3]): 8
- Giant foxtail plant response rating (giant foxtail; [4]): 9
- Giant foxtail plant response rating (giant foxtail; [8]): 0
- Plant response rating, Giant foxtail (giant foxtail; [5]): 5
- Giant foxtail plant response rating (giant foxtail; [6]): 8
- Redroot pigweed plant response rating (pigweed; [7]): 2
- Redroot pigweed plant response rating (pigweed; [1]): 0
- Redroot pigweed plant response rating (0 to 10 scale) (pigweed; [2]): 0
- Redroot pigweed plant response rating (pigweed; [3]): 0
- Redroot pigweed plant response rating (pigweed; [4]): 1
- Redroot pigweed plant response rating (pigweed; [8]): 0
- Plant response rating, Redroot pigweed (pigweed; [5]): 4
- Redroot pigweed plant response rating (pigweed; [6]): 4
- Crabgrass plant response rating (crabgrass; [7]): 4
- Crabgrass plant response rating (crabgrass; [1]): 4
- Crabgrass plant response rating (0 to 10 scale) (crabgrass; [2]): 7
- Crabgrass plant response rating (crabgrass; [3]): 8
- Crabgrass plant response rating (crabgrass; [4]): 8
- Crabgrass plant response rating (crabgrass; [8]): 2
- Plant response rating, Crabgrass (crabgrass; [5]): 9
- Crabgrass plant response rating (crabgrass; [6]): 9
- Corn plant response rating (corn; [7]): 0
- Corn plant response rating (corn; [1]): 0
- Corn plant response rating (0 to 10 scale) (corn; [2]): 0
- Corn plant response rating (corn; [3]): 0
- Corn plant response rating (corn; [4]): 0
- Corn plant response rating (corn; [8]): 0
- Plant response rating, Corn (corn; [5]): 3
- Corn plant response rating (corn; [6]): 3
- Ducksalad plant response rating (duck salad; [9]): 0
- Ducksalad plant response rating (duck salad; [10]): 0
- Ducksalad plant response rating (duck salad; [11]): 0
- Plant response rating, Ducksalad (duck salad; [12]): 0
- Velvetleaf plant response rating (velvetleaf; [1]): 0
- Velvetleaf plant response rating (0 to 10 scale) (velvetleaf; [2]): 1
- Velvetleaf plant response rating (velvetleaf; [3]): 4
- Velvetleaf plant response rating (velvetleaf; [4]): 4
- Plant response rating, Velvetleaf (velvetleaf; [5]): 1
- Velvetleaf plant response rating (velvetleaf; [6]): 1
- Sugarbeets plant response rating (sugar beet; [7]): 0
- Sugarbeets plant response rating (sugar beet; [1]): 0
- Sugarbeets plant response rating (0 to 10 scale) (sugar beet; [2]): 4
- Sugarbeets plant response rating (sugar beet; [3]): 4
- Sugarbeets plant response rating (sugar beet; [4]): 4
- Sugarbeets plant response rating (sugar beet; [8]): 0
- Plant response rating, Sugarbeets (sugar beet; [5]): 3
- Sugarbeets plant response rating (sugar beet; [6]): 6
- Blackgrass plant response rating (blackgrass; [7]): 3
- Blackgrass plant response rating (blackgrass; [1]): 0
- Blackgrass plant response rating (0 to 10 scale) (blackgrass; [2]): 3
- Blackgrass plant response rating (blackgrass; [3]): 6
- Blackgrass plant response rating (blackgrass; [4]): 8
- Blackgrass plant response rating (blackgrass; [8]): 0
- Plant response rating, Blackgrass (blackgrass; [5]): 7
- Blackgrass plant response rating (blackgrass; [6]): 8
